The values below come from ChEMBL document CHEMBL1201862, “PubChem BioAssay data set” (2004).

Some test systems named below: A549; BT-549; CAKI-1; CCRF-CEM; HCT-116; HCT-15; HOP-92; Hs-578T; MDA-MB-231; MOLT-4; Malme-3M; NCI-H23; OVCAR-4; RPMI-8226; SF-268; SF-295; SK-MEL-2; SW-620; UACC-257; UO-31.
Common to all, as to experiment: growth of human tumour cells (NCI), 48 h

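Dose response: 5 concentrations. Exposure: 48 h. Format: 96-well plates. Endpoint: linear interpolation; highest concentration if not reached. At the GI50, growth is halved.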 Active and inactive are the calls of the source. Rule as the data show it: active = GI50 up to about 1.1 µM and inactive = higher. Bounds are passed on as bounds.

With `CC(C)(Oc1ccc(Cl)cc1)C(=O)N(C(=O)N1CCC(c2ccccc2)CC1)c1ccccc1`, the GI50 with A549 was 34.5 µM (inactive); in the assay on BT-549 it was 23.4 µM (inactive); in the assay with CAKI-1 it was 46 µM (inactive); in the assay with CCRF-CEM, 3.03 µM (inactive); in the assay on HCT-116, 4.78 µM (inactive); in the assay with HCT-15, 9.89 µM. The GI50 with HOP-92 was > 100 µM (inactive); in the assay with Hs-578T, > 73.8 µM (inactive); in the assay on MDA-MB-231, > 100 µM (inactive); in the assay on MOLT-4, 7.05 µM (inactive); in the assay on Malme-3M, 25.4 µM (inactive); in the assay with NCI-H23, 8.79 µM (inactive). Besides, the GI50 is > 100 µM (inactive) in the assay with OVCAR-4; 2.99 µM (inactive) in the assay with RPMI-8226; > 100 µM (inactive) in the assay with SF-268; 23.8 µM (inactive) in the assay with SF-295; > 59.7 µM (inactive) in the assay on SK-MEL-2; 22.4 µM (inactive) in the assay on SW-620. The GI50 is 11 µM (inactive) in the assay with UACC-257 and 22.4 µM (inactive) in the assay with UO-31.
Take `O=C(N/N=C/c1ccccc1)c1cccc2nc3ccccc3nc12`: the GI50 with A549 is 3.81 µM (inactive); in the assay on BT-549 it was > 58.2 µM (inactive); in the assay on CAKI-1, > 100 µM (inactive); with CCRF-CEM, > 74.8 µM (inactive); in the assay on HCT-116, > 100 µM (inactive); in the assay on HCT-15 it was 9.66 µM. Further, the GI50 with HOP-92 is > 69.2 µM (inactive); with Hs-578T it was 18.7 µM (inactive); with MDA-MB-231, > 100 µM (inactive); in the assay on MOLT-4 it was > 100 µM (inactive); in the assay on Malme-3M, > 100 µM (inactive); in the assay with NCI-H23, 6.07 µM (inactive). Besides, the GI50 in the assay on OVCAR-4 was > 100 µM (inactive); with RPMI-8226, > 100 µM (inactive); in the assay with SF-268, > 80.2 µM (inactive); in the assay on SF-295 it was 17.1 µM (inactive); in the assay with SK-MEL-2 it was > 100 µM (inactive); in the assay with SW-620 it was > 100 µM (inactive). Also, the GI50 in the assay with UACC-257 and with UO-31 was > 100 µM (inactive) each time.
Consider `C/C(=N/NC(=S)Nc1cccc(Cl)c1)c1ccccn1`, for which the GI50 is 0.802 µM (active) in the assay on A549; 1.82 µM (inactive) with BT-549; 0.348 µM (active) with CAKI-1; < 0.0174 µM (active) with CCRF-CEM; < 0.0161 µM (active) in the assay with HCT-116; 0.0588 µM with HCT-15. Moreover, the GI50 in the assay on HOP-92 was 1.18 µM (inactive); in the assay with Hs-578T, 0.429 µM (active); in the assay with MDA-MB-231 it was < 0.0172 µM (active); with MOLT-4, < 0.0156 µM (active); with Malme-3M, 0.301 µM (active); in the assay on NCI-H23, 0.463 µM (active). Moreover, the GI50 in the assay with OVCAR-4 is 1.05 µM (active); in the assay with RPMI-8226, 0.029 µM (active); with SF-268 it was 0.142 µM (active); with SF-295, 0.366 µM (active); with SK-MEL-2 it was 1.2 µM (inactive); with SW-620, 0.0324 µM (active). The values for the GI50 in the assay with UACC-257 and in the assay with UO-31 were < 0.0208 µM (active) and 0.269 µM (active), respectively.
